# In patent publication US20120029187A1, “HALOALKYLSULFONANILIDE DERIVATIVE” (Nissan Chemical Industries, Ltd., priority 2009, published 2012):
# What was measured:
# Type in all cases: in vivo
# wild oat [1] = assay: Test Example 4: herbicidal effect in foliage treatment; details: three weeks after application
# Method in brief: (§1)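 Herbicidal effect was rated on an evaluation scale three weeks after treatment. Plants had been raised 14 days at 25 to 30° C in sterilized diluvial soil, then received foliar sprays of emulsifiable concentrate diluted in water at predetermined doses expressed as g per are.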
# redroot pigweed [2] = assay: as above; details: three weeks after application
# Method in brief: as §1
# posumbu knotweed [3] = assay: as above; details: three weeks after application
# Method in brief: as §1
# common chickweed [4] = assay: as above; details: three weeks after application
# Method in brief: as §1
# Italian ryegrass [5] = assay: as above; details: three weeks after application
# Method in brief: as §1
# beadstraw = assay: as above; details: three weeks after application
# Method in brief: as §1
# water foxtail [6] = assay: as above; details: three weeks after application
# Method in brief: as §1
# velvetleaf [7] = assay: as above; details: three weeks after application
# Method in brief: as §1
# common lambsquater [8] = assay: as above; details: three weeks after application
# Method in brief: as §1
# large crabgrass [9] = assay: as above; details: three weeks after application
# Method in brief: as §1
# common ragweed [10] = assay: as above; details: three weeks after application
# Method in brief: as §1
# giant foxtail [11] = assay: as above; details: three weeks after application
# Method in brief: as §1
# barnyardgrass [12] = assay: as above; details: three weeks after application
# Method in brief: as §1
# ducksalad [13] = assay: Test Example 1: herbicidal effects in preemergence treatment under submerged conditions; details: dose 2.52 g/a
# Method in brief: (§2)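 Score 0–5 by mortality (5: ≥90%; 0: <5%), read 3 weeks post-application. Paddy-type cups: alluvial soil under 4 cm water, weeds seeded plus transplanted 2.5-leaf rice; diluted EC dosed onto water surface same day as sowing, g/a basis; greenhouse 25 to 30° C.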
# bulrush [14] = assay: as above; details: dose 2.52 g/a
# Method in brief: as §2
# barnyardgrass [15] = assay: as above; details: dose 2.52 g/a
# Method in brief: as §2
# transplanted rice = assay: Test Example 1: preemergence treatment under submerged conditions, effect on crop; details: dose 2.52 g/a
# Method in brief: as §2
# ducksalad [16] = assay: Test Example 2: herbicidal effects during the vegetation period under submerged conditions; details: treatment during the vegetation period under submerged conditions; dose 2.52 g/a
# Method in brief: (§3)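 Barnyardgrass, bulrush and ducksalad were co-sown in alluvial soil flooded to 4 cm and grown in a greenhouse at 25 to 30° C. At the 1- or 2-leaf stage, water-diluted emulsifiable concentrates went onto the water surface at set doses (g/a). Herbicidal effect was scored three weeks later on a graded scale.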
# bulrush [17] = assay: as above; details: treatment during the vegetation period under submerged conditions; dose 2.52 g/a
# Method in brief: as §3
# barnyardgrass [18] = assay: as above; details: treatment during the vegetation period under submerged conditions; dose 2.52 g/a
# Method in brief: as §3
# wild oat [19] = assay: Test Example 3: herbicidal effects in soil treatment
# Method in brief: (§4)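 Seeds were sown in sterilized diluvial soil and covered with about 1.5 cm of soil. Compounds, formulated as emulsifiable concentrates and diluted with water, were sprayed evenly over the soil surface at set doses in g/a. Herbicidal effect was scored on a rating scale three weeks later.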
# redroot pigweed [20] = assay: as above
# Method in brief: as §4
# posumbu knotweed [21] = assay: as above
# Method in brief: as §4
# common chickweed [22] = assay: as above
# Method in brief: as §4
# Italian ryegrass [23] = assay: as above
# Method in brief: as §4
# water foxtail [24] = assay: as above
# Method in brief: as §4
# velvetleaf [25] = assay: as above
# Method in brief: as §4
# common lambsquater [26] = assay: as above
# Method in brief: as §4
# large crabgrass [27] = assay: as above
# Method in brief: as §4
# common ragweed [28] = assay: as above
# Method in brief: as §4
# giant foxtail [29] = assay: as above
# Method in brief: as §4
# barnyardgrass [30] = assay: as above
# Method in brief: as §4
smiles,measurement,setting,value
CCCOC(=O)N(c1ccccc1CN1COC(c2ccccc2)CC1=O)S(=O)(=O)C(F)(F)F (stereo not shown) [II-11],"F: wild oat, herbicidal effect",wild oat [1]; dose 3.2 g/a,0 (mortality of less than 5% (almost ineffective))
same,"K: redroot pigweed, herbicidal effect",redroot pigweed [2]; dose 3.2 g/a,0 (mortality of less than 5% (almost ineffective))
same,"M: posumbu knotweed, herbicidal effect",posumbu knotweed [3]; dose 3.2 g/a,3 (mortality of at least 40% and less than 70%)
same,"N: common chickweed, herbicidal effect",common chickweed [4]; dose 3.2 g/a,4 (mortality of at least 70% and less than 90%)
same,"H: Italian ryegrass, herbicidal effect",Italian ryegrass [5]; dose 3.2 g/a,1 (mortality of at least 5% and less than 20%)
same,"O: beadstraw, herbicidal effect",beadstraw; dose 3.2 g/a,4 (mortality of at least 70% and less than 90%)
same,"G: water foxtail, herbicidal effect",water foxtail [6]; dose 3.2 g/a,3 (mortality of at least 40% and less than 70%)
same,"I: velvetleaf, herbicidal effect",velvetleaf [7]; dose 3.2 g/a,4 (mortality of at least 70% and less than 90%)
same,"L: common lambsquater, herbicidal effect",common lambsquater [8]; dose 3.2 g/a,2 (mortality of at least 20% and less than 40%)
same,"D: large crabgrass, herbicidal effect",large crabgrass [9]; dose 3.2 g/a,2 (mortality of at least 20% and less than 40%)
same,"J: common ragweed, herbicidal effect",common ragweed [10]; dose 3.2 g/a,4 (mortality of at least 70% and less than 90%)
same,"E: giant foxtail, herbicidal effect",giant foxtail [11]; dose 3.2 g/a,2 (mortality of at least 20% and less than 40%)
same,"A: barnyardgrass, herbicidal effect",barnyardgrass [12]; dose 3.2 g/a,4 (mortality of at least 70% and less than 90%)
same,"C: ducksalad, herbicidal effect (evaluation scale 0-5)",ducksalad [13],5 (mortality of 90% or above (nearly complete death))
same,"B: bulrush, herbicidal effect (evaluation scale 0-5)",bulrush [14],5 (mortality of 90% or above (nearly complete death))
same,"A: barnyardgrass, herbicidal effect (evaluation scale 0-5)",barnyardgrass [15],5 (mortality of 90% or above (nearly complete death))
same,"a: transplanted rice, effect on crop (evaluation scale 0-5)",transplanted rice,0 (mortality of less than 5% (almost ineffective))
same,"C: ducksalad, herbicidal effect (evaluation scale 0-5)",ducksalad [16],5 (mortality of 90% or above (nearly complete death))
same,"B: bulrush, herbicidal effect (evaluation scale 0-5)",bulrush [17],5 (mortality of 90% or above (nearly complete death))
same,"A: barnyardgrass, herbicidal effect (evaluation scale 0-5)",barnyardgrass [18],5 (mortality of 90% or above (nearly complete death))
same,"F: wild oat, herbicidal effect (evaluation scale 0-5)",wild oat [19]; dose 3.2 g/a,0 (mortality of less than 5% (almost ineffective))
same,"K: redroot pigweed, herbicidal effect (evaluation scale 0-5)",redroot pigweed [20]; dose 3.2 g/a,0 (mortality of less than 5% (almost ineffective))
same,"M: posumbu knotweed, herbicidal effect (evaluation scale 0-5)",posumbu knotweed [21]; dose 3.2 g/a,0 (mortality of less than 5% (almost ineffective))
same,"N: common chickweed, herbicidal effect (evaluation scale 0-5)",common chickweed [22]; dose 3.2 g/a,3 (mortality of at least 40% and less than 70%)
same,"H: Italian ryegrass, herbicidal effect (evaluation scale 0-5)",Italian ryegrass [23]; dose 3.2 g/a,3 (mortality of at least 40% and less than 70%)
same,"G: water foxtail, herbicidal effect (evaluation scale 0-5)",water foxtail [24]; dose 3.2 g/a,4 (mortality of at least 70% and less than 90%)
same,"I: velvetleaf, herbicidal effect (evaluation scale 0-5)",velvetleaf [25]; dose 3.2 g/a,5 (mortality of 90% or above (nearly complete death))
same,"L: common lambsquater, herbicidal effect (evaluation scale 0-5)",common lambsquater [26]; dose 3.2 g/a,0 (mortality of less than 5% (almost ineffective))
same,"D: large crabgrass, herbicidal effect (evaluation scale 0-5)",large crabgrass [27]; dose 3.2 g/a,3 (mortality of at least 40% and less than 70%)
same,"J: common ragweed, herbicidal effect (evaluation scale 0-5)",common ragweed [28]; dose 3.2 g/a,2 (mortality of at least 20% and less than 40%)
same,"E: giant foxtail, herbicidal effect (evaluation scale 0-5)",giant foxtail [29]; dose 3.2 g/a,4 (mortality of at least 70% and less than 90%)
same,"A: barnyardgrass, herbicidal effect (evaluation scale 0-5)",barnyardgrass [30]; dose 3.2 g/a,3 (mortality of at least 40% and less than 70%)
CC(C)COC(=O)N(c1ccccc1CN1CCOCC1=O)S(=O)(=O)C(F)(F)F [Compound I-3],"F: wild oat, herbicidal effect",wild oat [1]; dose 6.3 g/a,0 (mortality of less than 5% (almost ineffective))
same,"K: redroot pigweed, herbicidal effect",redroot pigweed [2]; dose 6.3 g/a,2 (mortality of at least 20% and less than 40%)
same,"M: posumbu knotweed, herbicidal effect",posumbu knotweed [3]; dose 6.3 g/a,0 (mortality of less than 5% (almost ineffective))
same,"N: common chickweed, herbicidal effect",common chickweed [4]; dose 6.3 g/a,4 (mortality of at least 70% and less than 90%)
same,"H: Italian ryegrass, herbicidal effect",Italian ryegrass [5]; dose 6.3 g/a,3 (mortality of at least 40% and less than 70%)
same,"O: beadstraw, herbicidal effect",beadstraw; dose 6.3 g/a,4 (mortality of at least 70% and less than 90%)
same,"G: water foxtail, herbicidal effect",water foxtail [6]; dose 6.3 g/a,5 (mortality of 90% or above (nearly complete death))
same,"I: velvetleaf, herbicidal effect",velvetleaf [7]; dose 6.3 g/a,5 (mortality of 90% or above (nearly complete death))
same,"L: common lambsquater, herbicidal effect",common lambsquater [8]; dose 6.3 g/a,4 (mortality of at least 70% and less than 90%)
same,"D: large crabgrass, herbicidal effect",large crabgrass [9]; dose 6.3 g/a,5 (mortality of 90% or above (nearly complete death))
same,"J: common ragweed, herbicidal effect",common ragweed [10]; dose 6.3 g/a,4 (mortality of at least 70% and less than 90%)
same,"E: giant foxtail, herbicidal effect",giant foxtail [11]; dose 6.3 g/a,4 (mortality of at least 70% and less than 90%)
same,"A: barnyardgrass, herbicidal effect",barnyardgrass [12]; dose 6.3 g/a,5 (mortality of 90% or above (nearly complete death))
same,"C: ducksalad, herbicidal effect (evaluation scale 0-5)",ducksalad [13],5 (mortality of 90% or above (nearly complete death))
same,"B: bulrush, herbicidal effect (evaluation scale 0-5)",bulrush [14],5 (mortality of 90% or above (nearly complete death))
same,"A: barnyardgrass, herbicidal effect (evaluation scale 0-5)",barnyardgrass [15],5 (mortality of 90% or above (nearly complete death))
same,"a: transplanted rice, effect on crop (evaluation scale 0-5)",transplanted rice,0 (mortality of less than 5% (almost ineffective))
same,"C: ducksalad, herbicidal effect (evaluation scale 0-5)",ducksalad [16],5 (mortality of 90% or above (nearly complete death))
same,"B: bulrush, herbicidal effect (evaluation scale 0-5)",bulrush [17],5 (mortality of 90% or above (nearly complete death))
same,"A: barnyardgrass, herbicidal effect (evaluation scale 0-5)",barnyardgrass [18],5 (mortality of 90% or above (nearly complete death))
same,"F: wild oat, herbicidal effect (evaluation scale 0-5)",wild oat [19]; dose 6.3 g/a,0 (mortality of less than 5% (almost ineffective))
same,"K: redroot pigweed, herbicidal effect (evaluation scale 0-5)",redroot pigweed [20]; dose 6.3 g/a,3 (mortality of at least 40% and less than 70%)
same,"M: posumbu knotweed, herbicidal effect (evaluation scale 0-5)",posumbu knotweed [21]; dose 6.3 g/a,3 (mortality of at least 40% and less than 70%)
same,"N: common chickweed, herbicidal effect (evaluation scale 0-5)",common chickweed [22]; dose 6.3 g/a,5 (mortality of 90% or above (nearly complete death))
same,"H: Italian ryegrass, herbicidal effect (evaluation scale 0-5)",Italian ryegrass [23]; dose 6.3 g/a,5 (mortality of 90% or above (nearly complete death))
same,"G: water foxtail, herbicidal effect (evaluation scale 0-5)",water foxtail [24]; dose 6.3 g/a,5 (mortality of 90% or above (nearly complete death))
same,"I: velvetleaf, herbicidal effect (evaluation scale 0-5)",velvetleaf [25]; dose 6.3 g/a,5 (mortality of 90% or above (nearly complete death))
same,"L: common lambsquater, herbicidal effect (evaluation scale 0-5)",common lambsquater [26]; dose 6.3 g/a,5 (mortality of 90% or above (nearly complete death))
same,"D: large crabgrass, herbicidal effect (evaluation scale 0-5)",large crabgrass [27]; dose 6.3 g/a,5 (mortality of 90% or above (nearly complete death))
same,"J: common ragweed, herbicidal effect (evaluation scale 0-5)",common ragweed [28]; dose 6.3 g/a,4 (mortality of at least 70% and less than 90%)
same,"E: giant foxtail, herbicidal effect (evaluation scale 0-5)",giant foxtail [29]; dose 6.3 g/a,5 (mortality of 90% or above (nearly complete death))
same,"A: barnyardgrass, herbicidal effect (evaluation scale 0-5)",barnyardgrass [30]; dose 6.3 g/a,5 (mortality of 90% or above (nearly complete death))
